ChEMBL document CHEMBL1795262, “Pyrazole-based sulfonamide and sulfamides as potent inhibitors of mammalian 15-lipoxygenase” (Bioorg Med Chem Lett, 2011)
≈ marks a conversion by molar mass, not a printed value.

Legend:
[1] = target: T1, Polyunsaturated fatty acid lipoxygenase ALOX15 (Oryctolagus cuniculus, UniProt P12530); assay: Inhibition of rabbit 15-LO using arachidonic acid by standard colorimetric assay
T1 sequence (P12530 whole entry): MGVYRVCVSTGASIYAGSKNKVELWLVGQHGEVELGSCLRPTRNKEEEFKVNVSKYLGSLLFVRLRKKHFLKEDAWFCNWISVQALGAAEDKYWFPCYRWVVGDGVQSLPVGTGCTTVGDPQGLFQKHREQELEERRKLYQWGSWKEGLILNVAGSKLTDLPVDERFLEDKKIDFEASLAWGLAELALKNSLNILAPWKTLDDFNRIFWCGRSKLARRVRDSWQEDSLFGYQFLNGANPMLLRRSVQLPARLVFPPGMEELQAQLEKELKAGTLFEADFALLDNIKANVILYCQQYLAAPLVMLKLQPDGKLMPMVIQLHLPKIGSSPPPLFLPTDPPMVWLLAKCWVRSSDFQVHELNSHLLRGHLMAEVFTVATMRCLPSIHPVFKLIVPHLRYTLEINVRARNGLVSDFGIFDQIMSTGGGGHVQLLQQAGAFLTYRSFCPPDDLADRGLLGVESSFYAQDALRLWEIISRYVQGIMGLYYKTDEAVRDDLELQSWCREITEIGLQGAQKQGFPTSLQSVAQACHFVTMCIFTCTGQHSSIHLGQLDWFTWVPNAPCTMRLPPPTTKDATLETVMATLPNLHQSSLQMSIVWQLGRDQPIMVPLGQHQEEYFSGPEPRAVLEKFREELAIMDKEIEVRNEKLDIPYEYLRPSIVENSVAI

[2] = target: T1, Polyunsaturated fatty acid lipoxygenase ALOX15; assay: Inhibition of rabbit 15-LO using linoleic acid by standard colorimetric assay
Oryctolagus cuniculus [3] = organism: Oryctolagus cuniculus; assay: Inhibition of 15-HETE production in New Zealand White rabbit whole blood at 10 uM by RP-HPLC; type: functional
[4] = Aqueous solubility of the compound in water at pH 6.5
[5] = target: T2, Polyunsaturated fatty acid lipoxygenase ALOX12 (Homo sapiens) (UniProt P18054); assay: Inhibition of 12-LO at 10 uM
T2 sequence (whole entry): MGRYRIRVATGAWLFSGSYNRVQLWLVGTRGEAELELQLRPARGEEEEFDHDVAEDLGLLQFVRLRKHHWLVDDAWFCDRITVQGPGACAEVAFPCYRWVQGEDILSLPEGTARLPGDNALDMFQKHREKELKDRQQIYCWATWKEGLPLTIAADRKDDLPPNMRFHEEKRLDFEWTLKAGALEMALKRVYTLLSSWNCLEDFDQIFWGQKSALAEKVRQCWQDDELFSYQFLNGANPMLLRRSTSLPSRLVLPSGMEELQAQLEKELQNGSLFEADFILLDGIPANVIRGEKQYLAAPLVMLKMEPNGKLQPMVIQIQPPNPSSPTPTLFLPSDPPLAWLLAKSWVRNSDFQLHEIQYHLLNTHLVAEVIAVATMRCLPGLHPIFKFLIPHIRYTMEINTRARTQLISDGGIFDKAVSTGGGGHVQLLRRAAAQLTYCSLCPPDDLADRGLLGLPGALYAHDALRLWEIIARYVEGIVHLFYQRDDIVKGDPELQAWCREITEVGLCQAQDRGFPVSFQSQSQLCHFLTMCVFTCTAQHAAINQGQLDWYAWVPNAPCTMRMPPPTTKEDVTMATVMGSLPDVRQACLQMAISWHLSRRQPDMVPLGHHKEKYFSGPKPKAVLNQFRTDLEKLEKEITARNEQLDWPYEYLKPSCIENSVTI

[6] = target: T3, Polyunsaturated fatty acid lipoxygenase ALOX15 (Homo sapiens) (UniProt P16050); assay: Inhibition of human 15-LO expressed in CHO cells at 1 uM by cell-based assay
T3 sequence (whole entry): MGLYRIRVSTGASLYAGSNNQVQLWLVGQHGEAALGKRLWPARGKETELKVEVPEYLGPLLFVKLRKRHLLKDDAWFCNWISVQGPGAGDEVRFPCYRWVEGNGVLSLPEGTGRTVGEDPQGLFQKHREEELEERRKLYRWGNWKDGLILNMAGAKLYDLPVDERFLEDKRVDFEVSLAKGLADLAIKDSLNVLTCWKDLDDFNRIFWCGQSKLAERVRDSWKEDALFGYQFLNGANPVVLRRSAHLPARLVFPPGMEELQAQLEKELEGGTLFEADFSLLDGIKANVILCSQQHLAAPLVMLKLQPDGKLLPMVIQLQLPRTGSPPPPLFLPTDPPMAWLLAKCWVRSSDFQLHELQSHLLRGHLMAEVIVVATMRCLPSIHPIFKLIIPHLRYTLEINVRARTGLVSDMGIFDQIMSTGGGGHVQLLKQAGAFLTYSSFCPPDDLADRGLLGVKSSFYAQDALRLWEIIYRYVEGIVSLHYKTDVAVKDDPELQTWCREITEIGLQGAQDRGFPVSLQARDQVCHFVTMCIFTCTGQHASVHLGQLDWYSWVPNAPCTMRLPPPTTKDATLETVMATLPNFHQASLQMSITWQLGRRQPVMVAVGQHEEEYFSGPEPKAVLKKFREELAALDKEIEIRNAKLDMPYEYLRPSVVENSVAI

Oryctolagus cuniculus [7] = organism: Oryctolagus cuniculus; assay: Inhibition of 15-HETE production in New Zealand White rabbit whole blood at 3 uM by RP-HPLC; type: functional
[8] = target: T3, Polyunsaturated fatty acid lipoxygenase ALOX15 (Homo sapiens); assay: Inhibition of human 15-LO expressed in CHO cells at 3 uM by cell-based assay
[9] = target: T4, Polyunsaturated fatty acid 5-lipoxygenase (Homo sapiens) (UniProt P09917); assay: Inhibition of 5-LO at 10 uM
T4 sequence (whole entry): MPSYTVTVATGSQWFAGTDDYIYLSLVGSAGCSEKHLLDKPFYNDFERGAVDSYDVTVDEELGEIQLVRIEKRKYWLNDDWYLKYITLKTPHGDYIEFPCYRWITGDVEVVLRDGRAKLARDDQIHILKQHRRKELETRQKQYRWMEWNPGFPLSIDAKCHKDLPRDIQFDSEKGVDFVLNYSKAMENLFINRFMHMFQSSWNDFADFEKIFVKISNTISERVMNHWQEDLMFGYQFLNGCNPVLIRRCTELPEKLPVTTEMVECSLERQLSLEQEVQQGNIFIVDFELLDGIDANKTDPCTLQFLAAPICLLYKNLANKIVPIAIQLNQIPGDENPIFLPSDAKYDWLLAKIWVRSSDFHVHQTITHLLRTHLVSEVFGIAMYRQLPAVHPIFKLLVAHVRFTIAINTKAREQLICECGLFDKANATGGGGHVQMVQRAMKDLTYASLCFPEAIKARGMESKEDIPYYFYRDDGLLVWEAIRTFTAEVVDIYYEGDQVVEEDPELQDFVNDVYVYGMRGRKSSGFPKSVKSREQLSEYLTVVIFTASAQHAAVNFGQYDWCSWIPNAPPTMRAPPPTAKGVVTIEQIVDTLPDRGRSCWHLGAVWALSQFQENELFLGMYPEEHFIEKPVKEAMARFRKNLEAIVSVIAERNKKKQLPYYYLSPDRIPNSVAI

Oryctolagus cuniculus [10] = organism: Oryctolagus cuniculus; assay: Inhibition of 15-HETE production in New Zealand White rabbit whole blood at 1 uM by RP-HPLC; type: functional
[11] = target: T5, Polyunsaturated fatty acid 5-lipoxygenase (Homo sapiens, UniProt P09917); assay: Inhibition of 5-LO
T5 sequence (P09917 whole entry): T4 sequence (whole entry)

SMILES	IC50 [1] [µM]	IC50 [2] [µM]	further results
CCCCCc1ccc(S(=O)(=O)NCCc2c(-c3ccccc3)n[nH]c2Cc2ccccc2)cc1	0.918	0.158	
CCCCCc1ccc(S(=O)(=O)NCCc2c(-c3ccccc3)n[nH]c2-c2cccc(OC)c2)cc1	0.524	0.068	
CCCCCc1ccc(S(=O)(=O)NCCc2c(-c3cccs3)n[nH]c2-c2cccs2)cc1	0.019	0.004	inhibition at 10 µM (Oryctolagus cuniculus [3]): 25%; solubility [4]: 0.0002 mg/mL (≈ 0.412 µM); inhibition [5]: 35%
CCCCCc1ccc(S(=O)(=O)NCCc2c(-c3cccs3)n[nH]c2-c2cnccn2)cc1	0.065	0.012	
COc1cccc(-c2[nH]nc(-c3cccs3)c2CCNS(=O)(=O)N(C)[C@@H]2CCN(Cc3ccccc3)C2)c1	0.0043	0.0015	inhibition [6]: 51%; inhibition at 10 µM (Oryctolagus cuniculus [3]): 43%
CN([C@@H]1CCN(Cc2ccccc2)C1)S(=O)(=O)NCCc1c(-c2cccs2)n[nH]c1-c1cnccn1	0.007	0.003	inhibition [6]: 81%; inhibition at 3 µM (Oryctolagus cuniculus [7]): 51%; solubility [4]: 0.079 mg/mL (≈ 151 µM)
CCN([C@@H]1CCN([C@H](C)c2ccccc2)C1)S(=O)(=O)NCCc1c(-c2cccs2)n[nH]c1-c1cnccn1	0.0082	0.0053	inhibition [8]: 61%; inhibition at 10 µM (Oryctolagus cuniculus [3]): 55%; solubility [4]: 0.071 mg/mL (≈ 129 µM); inhibition [9]: 68%; inhibition [5]: 38%
CCCCCc1ccc(S(=O)(=O)NCCc2c(-c3ccccc3)n[nH]c2-c2ccc(OC)cc2)cc1	1.56	0.15	
CCN([C@@H]1CCN(C(C)(C)c2ccccc2)C1)S(=O)(=O)NCCc1c(-c2cccs2)n[nH]c1-c1cnccn1	0.0041	0.0027	inhibition [8]: 83%; inhibition at 10 µM (Oryctolagus cuniculus [3]): 63%; solubility [4]: 0.071 mg/mL (≈ 125 µM); inhibition [9]: 60%; inhibition [5]: 35%
CCCCCc1ccc(S(=O)(=O)NCCc2c(-c3ccc(OC)cc3)n[nH]c2CC(C)C)cc1		0.305	
CCCCCc1ccc(S(=O)(=O)NCCc2c(-c3cccs3)n[nH]c2-c2cccc(OC)c2)cc1	0.053	0.009	
CCCCCc1ccc(S(=O)(=O)NCCc2c(-c3ccc(OC)cc3)n[nH]c2C)cc1		3.98	
CCN([C@@H]1CCN([C@@H](C)c2ccccc2)C1)S(=O)(=O)NCCc1c(-c2cccs2)n[nH]c1-c1cnccn1	0.0024	0.0018	inhibition [8]: 94%; inhibition at 3 µM (Oryctolagus cuniculus [7]): 69%; inhibition at 1 µM (Oryctolagus cuniculus [10]): 39%; solubility [4]: 0.076 mg/mL (≈ 138 µM); IC50 [11]: 5.5 µM; inhibition [5]: 32%
CN([C@@H]1CCN(Cc2ccccc2)C1)S(=O)(=O)NCCc1c(-c2cccs2)n[nH]c1-c1ccccc1	0.0075	0.0036	inhibition at 10 µM (Oryctolagus cuniculus [3]): 44%
CCCCCc1ccc(S(=O)(=O)NCCc2c(-c3cccs3)n[nH]c2-c2ccccc2)cc1	0.028	0.011	
CCN([C@@H]1CCN(C(C)c2ccc(F)cc2)C1)S(=O)(=O)NCCc1c(-c2cccs2)n[nH]c1-c1cnccn1 (some centres undefined)			inhibition at 3 µM (Oryctolagus cuniculus [7]): 73%; inhibition at 1 µM (Oryctolagus cuniculus [10]): 45%; solubility [4]: 0.129 mg/mL (≈ 226 µM); inhibition [5]: 16%
CN([C@@H]1CCN(Cc2ccccc2)C1)S(=O)(=O)NCCc1c(-c2cccs2)n[nH]c1-c1cccs1	0.007	0.002	inhibition [6]: 79%; inhibition at 3 µM (Oryctolagus cuniculus [7]): 40%
Cc1cc(-c2[nH]nc(-c3cccs3)c2CCNS(=O)(=O)N(C)[C@@H]2CCN(Cc3ccccc3)C2)no1	0.015	0.0042	inhibition at 10 µM (Oryctolagus cuniculus [3]): 71%
CCCCCc1ccc(S(=O)(=O)NCCc2c(-c3ccccc3OC)n[nH]c2-c2ccccc2)cc1		1.22	
CCCCCc1ccc(S(=O)(=O)NCCc2c(-c3cccs3)n[nH]c2-c2cc(C)on2)cc1	0.036	0.01	
CCCCCc1ccc(S(=O)(=O)NCCc2c(-c3ccccc3)n[nH]c2-c2ccccc2)cc1	0.313	0.035	
